According to publication PMC12164691 (Molecular Pharmacology, 2021):

Tests used:
TAS2R39 [1] = biological target: T1, TAS2R39 (Homo sapiens, UniProt P59534); experiment: Calcium mobilization in HEK293 cells expressing TAS2R39 and Gα16-gust44; antagonism of […] TAF (also of […] denatonium, IC50 […]); type: cell-based
T1 sequence (P59534 1-338): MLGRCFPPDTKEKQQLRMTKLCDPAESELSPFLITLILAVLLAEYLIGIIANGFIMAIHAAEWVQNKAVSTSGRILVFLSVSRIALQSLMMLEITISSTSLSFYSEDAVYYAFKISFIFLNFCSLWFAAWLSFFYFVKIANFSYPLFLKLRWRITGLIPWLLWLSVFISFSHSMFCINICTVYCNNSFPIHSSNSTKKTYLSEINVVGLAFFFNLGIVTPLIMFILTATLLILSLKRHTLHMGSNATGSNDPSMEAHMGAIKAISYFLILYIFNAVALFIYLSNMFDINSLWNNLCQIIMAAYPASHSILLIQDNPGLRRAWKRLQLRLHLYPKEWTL

TAS2R14 = TAS2R14 (Homo sapiens, UniProt Q9NYV8)
Chain of TAS2R14 (Q9NYV8 whole entry): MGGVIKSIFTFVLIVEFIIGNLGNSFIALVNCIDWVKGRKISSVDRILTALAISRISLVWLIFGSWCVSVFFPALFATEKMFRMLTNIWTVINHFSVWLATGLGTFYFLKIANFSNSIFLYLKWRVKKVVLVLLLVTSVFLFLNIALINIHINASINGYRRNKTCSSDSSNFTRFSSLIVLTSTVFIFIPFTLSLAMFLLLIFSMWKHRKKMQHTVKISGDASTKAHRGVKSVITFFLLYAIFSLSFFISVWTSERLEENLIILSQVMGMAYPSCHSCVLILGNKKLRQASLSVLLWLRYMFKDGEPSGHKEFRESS

TAS2R8 = TAS2R8 (Homo sapiens, UniProt Q9NYW2)
Chain of TAS2R8 (Q9NYW2 whole entry): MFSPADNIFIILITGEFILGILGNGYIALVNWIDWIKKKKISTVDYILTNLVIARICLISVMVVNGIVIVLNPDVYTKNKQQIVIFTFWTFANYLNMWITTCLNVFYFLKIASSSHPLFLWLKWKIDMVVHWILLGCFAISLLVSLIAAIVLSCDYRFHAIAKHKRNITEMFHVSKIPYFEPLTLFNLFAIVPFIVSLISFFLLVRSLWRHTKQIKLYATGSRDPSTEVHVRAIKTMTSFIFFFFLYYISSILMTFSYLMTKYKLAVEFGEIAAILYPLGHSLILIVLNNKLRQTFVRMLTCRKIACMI

TAS2R39 [2] = biological target: T1, TAS2R39

| Compound | IC50 (TAS2R39 [1]) | Calcium mobilization in HEK293 cells expressing TAS2R14 and Gα16-gust44; concent (TAS2R14) | Calcium mobilization in HEK293 cells expressing TAS2R8 and Gα16-gust44; concentr (TAS2R8) | Calcium mobilization in HEK293 cells expressing TAS2R39 and Gα16-gust44; concent (TAS2R39 [2]) |
| --- | --- | --- | --- | --- |
| Cc1ccc2oc(-c3ccccc3)cc(=O)c2c1 [6-MF, 6-methylflavone] | 22 µM | – | – | – |
| CC(C)OC(=O)[C@H](C)N[P@](=O)(CO[C@H](C)Cn1cnc2c(N)ncnc21)Oc1ccccc1 [TAF, tenofovir alafenamide] | – | cells expressing TAS2R8 and TAS2R14 showed small but significant responses to TAF | cells expressing TAS2R8 and TAS2R14 showed small but significant responses to TAF | TAF activates TAS2R1, TAS2R8, TAS2R14, and TAS2R39 concentration-dependently. |
